Experimental data taken from US3994910A, “Derivatives of 1,2-diphenyl-3,5-dioxo-4-N-butyl-pyrazolidine and process for making same” (Antonia Gallardo, S.A., priority 1973, dated 1976).
“Also recorded” adds a separate entry of the source. Counter-ions that a name gives are not always drawn. Like-named read-outs stand apart in the source and are kept apart here.

Tests used:
[1] = system: granuloma induced in rats by implantation of cotton balls; test: Granuloma induced in rats by implantation of cotton balls; assay type: in vivo, rat; details: for Dry granuloma ± standard error: net weight, (mg) printed in adjoining wet weight head; for Weight of wet granuloma: net weight ± standard error
Source text: The figures refer to the net weight of granuloma tissue obtained by subtracting the original weight of the cotton ball.

[2] = system: rat stomach; details: in vivo
[3] = system: carrageenin-induced oedema in the rat's paw; test: Inhibition of carrageenin-induced oedema in rat's paw; details: for % Inhibition ± standard error (paw oedema): 3 hours after carrageenin; for Volume of paw (ml) ± standard error: measured 3 hours after carrageenin
[4] = system: rat stomach; test: Ulcerogenic activity on the stomach; details: compared with phenylbutazone
[5] = system: humans with reumatic diseases; test: Treatment of humans with reumatic diseases / polyarthritics; assay type: in vivo, human
Source text: In general, the new therapeutic compounds can be used to treat the same disorders as phenylbutazone. […] These therapeutic compounds have been found effective in treating humans as well as animals.

[6] = system: contortions induced by acetic acid in mice; test: Inhibition of contortions induced by acetic acid injected into the abdominal cavity of the mouse; assay type: in vivo
[7] = background knowledge; cited from earlier work
[8] = system: rat
[9] = in vivo; details: rat, po
[10] = high doses (200 mg/kg), both products compared
[11] = lower dose levels (100 and 50 mg/kg)
[12] = 25 mg/kg per os 1 h before carrageenin
[13] = 50 mg/kg per os 1 h before carrageenin
[14] = 100 mg/kg per os 1 h before carrageenin
[15] = 200 mg/kg per os 1 h before carrageenin
[16] = 30 mg/kg per os 1 h before acetic acid injection
[17] = 100 mg/kg per os 1 h before acetic acid injection
[18] = 300 mg/kg per os 1 h before acetic acid injection

| Compound | Percentage inhibition Dry granuloma ([1]; 50 mg/Kg/day per os) [%] | Percentage inhibition Wet granuloma ([1]; 50 mg/Kg/day per os) [%] | Dry granuloma ± standard error ([1]; 50 mg/Kg/day per os) [mg] | Percentage inhibition Dry granuloma ([1]; 100 mg/Kg/day per os) [%] | Percentage inhibition Wet granuloma ([1]; 100 mg/Kg/day per os) [%] | Dry granuloma ± standard error ([1]; 100 mg/Kg/day per os) [mg] | Percentage inhibition Dry granuloma ([1]; 200 mg/Kg/day per os) [%] | Percentage inhibition Wet granuloma ([1]; 200 mg/Kg/day per os) [%] | Dry granuloma ± standard error ([1]; 200 mg/Kg/day per os) [mg] | inhibition of granuloma tissue formation [1, 10] | inhibition of granuloma tissue formation [1, 11] | UG: Intensity of ulceration produced in the rat stomach [2] | ulcerogenic indices ± standard error ([2]; 50 mg/kg) | ulcerogenic indices ± standard error ([2]; 100 mg/kg) | ulcerogenic indices ± standard error ([2]; 200 mg/kg) | Volume of paw (ml) ± standard error [3, 12] [mL] | % Inhibition ± standard error (paw oedema) [3, 13] [%] | Volume of paw (ml) ± standard error [3, 13] [mL] | % Inhibition ± standard error (paw oedema) [3, 14] [%] | Volume of paw (ml) ± standard error [3, 14] [mL] | further results |
| --- | --- | --- | --- | --- | --- | --- | --- | --- | --- | --- | --- | --- | --- | --- | --- | --- | --- | --- | --- | --- | --- |
| CCCCC1C(=O)N(c2ccccc2)N(c2ccccc2)C1=O [LAS 11871, 1,2-diphenyl-3,5-dioxo-4-n-butylpyrazolidine-2-amino-2-thiazoline] | 20.00 | 14.40 ± 1.90 | 61.82 ± 3.16 | 19.90 ± 6.10 | 18.60 ± 3.70 | 61.95 ± 4.74 | 37.60 ± 2.50 | 20.50 ± 2.80 | 48.29 ± 1.98 | about the same degree of inhibition of granuloma tissue formation | continued to inhibit the granuloma tissue formation | + | 0.59 ± 0.19 | 2.43 ± 0.41 | 3.65 ± 0.56 | 0.7864 ± 0.0632 | 36.01 ± 7.06 | 0.6182 ± 0.0683 | 72.40 ± 4.43 | 0.2667 ± 0.0428 | % Inhibition ± standard error (paw oedema) [3, 12]: 18.60 ± 6.54%; % Inhibition ± standard error (paw oedema) [3, 15]: 84.00 ± 3.97%; Volume of paw (ml) ± standard error [3, 15]: 0.1545 ± 0.0384 mL; activity against inflammation compared with phenylbutazone ([3]; Table 2, at doses of 50 mg/kg and above): the more active compound; activity against inflammation compared with phenylbutazone ([3]; Table 2, overall): at least as active as phenylbutazone against inflammation; anti-inflammatory activity compared with phenylbutazone ([3]; general statement): more active as an analgesic and anti-inflammatory agent than phenylbutazone; ulcerogenic activity / gastric lesions [4]: much less active in this respect than phenylbutazone; also recorded: produces fewer gastric lesions; treatment of polyarthritics ([5]; 200 mg two, or three times per day): successfully treat polyarthritics; treatment of humans with reumatic diseases ([5]; humans): effective in the treatment of humans with reumatic diseases; No. of contortions ± standard error [6, 16]: 44.20 ± 6.03; % inhibition ± standard error (contortions) [6, 17]: 54.90 ± 7.76%; No. of contortions ± standard error [6, 17]: 36.90 ± 6.34; % inhibition ± standard error (contortions) [6, 18]: 70.50 ± 4.60%; No. of contortions ± standard error [6, 18]: 24.10 ± 3.74; analgesic activity compared with phenylbutazone ([6]; mouse, in vivo): more potent than phenylbutazone as an analgesic; also recorded: more active as an analgesic and anti-inflammatory agent than phenylbutazone |
| CCCCC1C(=O)N(c2ccccc2)N(c2ccccc2)C1=O [LAS 6671, 1,2-diphenyl-3,5-dioxo-4-n-butylpyrazolidine-2-amino-4-methyl-pyridine] |  |  |  |  |  |  |  |  |  |  |  | + |  |  |  |  |  |  |  |  |  |
| CCCCC1C(=O)N(c2ccccc2)N(c2ccccc2)C1=O [Piperazine salt of Phenylbutazone] |  |  |  |  |  |  |  |  |  |  |  | + |  |  |  |  |  |  |  |  |  |
| CCCCC1C(=O)N(c2ccccc2)N(c2ccccc2)C1=O [Phenylbutazone, 4-n-butyl-1,2-diphenyl-3,5-pyrazolidinedione] | 8.50 ± 10.6 | 4.30 ± 4.10 | 83.94 ± 8.22 | 7.90 ± 6.70 | 6.50 ± 2.90 | 71.23 ± 5.18 | 35.40 ± 5.50 | 22.20 ± 2.80 | 49.96 ± 4.25 | about the same degree of inhibition of granuloma tissue formation | did not | ++ | 0.73 ± 0.21 | 4.33 ± 0.47 | 5.00 ± 0.56 | 0.6545 ± 0.0545 | 28.70 ± 7.24 | 0.6886 ± 0.0699 | 67.50 ± 2.30 | 0.3139 ± 0.0224 | most frequent serious toxic effects [7]: ulcerogenesis and fluid retention; LD50 per os in the rat (only range in parentheses printed) ([8]; per os, doses in mg/kg, no central value printed): 530 - 725; Weight of wet granuloma ([1]; 50 mg/Kg/day per os): 434.75 ± 18.36 mg; Weight of wet granuloma ([1]; 100 mg/Kg/day per os): 424.50 ± 13.47 mg; Weight of wet granuloma ([1]; 200 mg/Kg/day per os): 353.40 ± 13.14 mg; % Inhibition ± standard error (paw oedema) [3, 15]: 74.60 ± 4.70%; Volume of paw (ml) ± standard error [3, 15]: 0.2458 ± 0.0454 mL; % inhibition ± standard error (contortions) [6, 16]: 27.70 ± 7.97%; No. of contortions ± standard error [6, 16]: 59.00 ± 6.51; % inhibition ± standard error (contortions) [6, 17]: 42.10 ± 8.20%; No. of contortions ± standard error [6, 17]: 47.30 ± 6.70; No. of contortions ± standard error [6, 18]: 42.30 ± 6.75 |
| NC1=NCCS1 [2-amino-thiazoline, 2-amino-2-thiazoline] |  |  |  |  |  |  |  |  |  |  |  |  |  |  |  |  |  |  |  |  | No. deaths ([8]; 316 mg/kg per os): 2; No. deaths ([8]; 383 mg/kg per os): 4; No. deaths ([8]; 464 mg/kg per os): 6; No. deaths ([8]; 562 mg/kg per os): 7; No. deaths ([8]; 681 mg/kg per os): 9; No. deaths ([8]; 825 mg/kg per os): 9; LD50 [9]: 430 mg/kg; mortality ([9]; 316 mg/kg): 20%; mortality ([9]; 383 mg/kg): 40%; mortality ([9]; 464 mg/kg): 60%; mortality ([9]; 562 mg/kg): 70%; mortality ([9]; 681 mg/kg): 90%; mortality ([9]; 825 mg/kg): 90% |
